Reference: publication PMC4514675, “Novel Apo E-Derived ABCA1 Agonist Peptide (CS-6253) Promotes Reverse Cholesterol Transport and Induces Formation of preβ-1 HDL In Vitro” (PLoS ONE, 2015)

Assays:
BHK-mock cells = test: Cholesterol efflux from control cells (unstimulated BHK-ABCA1, BHK-mock), media; type: cell-based, hamster
Description: BHK cells stably transfected with an ABCA1 or ABCG1 expression vector that is mifepristone inducible and cells transfected with the same vector lacking the ABCA1 cDNA insert (mutant or mock-transfected) were generously provided by the late Dr. John F. Oram from the Department of Medicine, University of Washington, and were characterized and cultured as previously described. […] Mouse-derived peritoneal macrophages J774 were purchased from American Tissue Culture Collection (ATCC TIB-67, Cederlane, Burlington, Canada). For induction of ABCA1, BHK cells were incubated for 18–20 h with 10 nM mifepristone. […]
Fig 2 Effect of CS-6253 treatment on cholesterol efflux. […] Cholesterol efflux from either ABCA1 cells or control cells to apo A-I (closed circles), and CS-6253 (closed triangles) was determined at the indicated time points. […] ABCA1 was detected from THP-1 foam cells lysis at 4°C with lysis buffer containing 0.5% n-dodecylmaltoside in the presence of a protease inhibitor mixture followed by low speed centrifugation to remove cell debris. Protein concentration was determined by standard assay (Bio-Rad). […] After electrophoresis, ABCA1 was detected by an anti-ABCA1 antibody. […] 3[H]-FC and 3[H]-CE were separated by TLC and located by exposure to iodine vapor, and were scraped off into liquid scintillating vials and assayed for radioactivity. […]

[1] = test system: BHK-ABCA1 plasma membrane microdomains; test: Desorption of phosphatidylcholine and sphingomyelin species from raft and non-raft domains of BHK-ABCA1 cells; type: cell-based, hamster; conditions: 0.96 μM, 12 h
Method: Lipid labeling was performed as described previously with minor modifications. Briefly, BHK-cells were labeled with either 5 μCi/ml ^3[H] choline (Perkin-Elmer) for 48 h or 3 μCi/ml ^3[H] cholesterol (Perkin-Elmer) for 24 h, and then stimulated as described above. Cells were subsequently incubated with lipid-free apoA-I or CS-6253 at (0.96 μM) for 12h, and fractionated by sucrose gradient in the presence of 0.2% Triton X-100. For each fraction, lipids were extracted by Folch and ^3[H]choline-labeled PtdCho, and SM were separated by TLC in the solvent system chloroform-methanol-water (65:35:4; v/v/v), and counted.
Fig 4 Apo A-I (left panels) and CS-6253 (right panels) desorb phospholipids species from raft and nonraft domains. […] After lipid extraction by Folch, ^3[H]phosphatidyl choline (^3[H]PC) (A and B), or ^3[H]sphingomyelin (^3[H]SM) (C and D) in each fraction was assessed for radioactivity. Radioactivity appearing in fractions corresponding to raft (1–5) and nonraft (6–10) material was pooled, and desorption of ^3[H]PC (A and B inset) and ^3[H]SM (C and D inset), from raft versus nonraft in the presence of apo A-I or CS-6253 was expressed as a percentage of control (100%, in the absence of acceptor). ^3[H]PC and ^3[H]SM distributions in sucrose gradient fractions after 12h incubation with apo A-I or CS-6253 were assessed by TLC respectively. […]

With apolipoprotein A-I [apo A-I] as the substance, how does the “maximum cholesterol efflux by diffusion” value (BHK-mock cells; BHK mock and unstimulated BHK-ABCA1 cells) read?
Its value is 0.75%.

And the “cholesterol efflux from control cells” value (BHK-mock cells; unstimulated BHK-ABCA1 and BHK-mock, CS-6253 30 μg/ml, apo A-I 10 μg/ml)?
Its value is “no significant cholesterol efflux”.

What about the “PC desorption in PM microdomains (in words)” value [1] of the same substance?
Its value is “less PC desorption in PM microdomains than CS-6253”.

What about the SM desorption [1] of the same substance?
The SM desorption was “desorbed from both non-raft and raft domains”.
